Data reported in PMC12635268, “Novel antimicrobial peptides and peptide-microbiome crosstalk in Appalachian salamander skin” (NPJ Biofilms and Microbiomes, 2025).
Ends that are not written are not given here. Peptide text beside a SMILES is read from it.

Columns and labels:
[1] = tested on: K. pneumoniae 4640; conditions: 4640, 20 h
[2] = set-up: method as in Biomatik (vendor); conditions: 1.0 mg peptide in 1.0 ml solvent; peptides synthesized by Biomatik; ref Biomatik (vendor); cited from earlier work
[3] = tested on: K. pneumoniae ATCC 13883; assay: microbe, parasite or virus in culture; conditions: ATCC 13883, 20 h
Method: (§1) Antimicrobial susceptibility testing of the 20 synthesized peptides against 17 bacterial strains of clinical relevance in the ESKAPEE panel was conducted using minimum inhibitory concentration (MIC) assays following the broth microdilution method outlined by Parker et al.[91]. The ESKAPEE panel is comprised of fourteen American Type Culture Collection (ATCC) strains and three Multidrug Resistant Organism Repository and Surveillance Network (MRSN) bacterial strains. These strains represent at least one drug-susceptible strain and one drug-resistant strain for each bacterium to assess drug efficacy across various resistance mechanisms. This panel is comprised of the following bacterial species and strains: E. faecium (ATCC 19434, ATCC 49224), S. aureus (ATCC 25923, ATCC 43300), K. pneumoniae (ATCC 700603, ATCC 13883, MRSN 1320), A. baumannii (ATCC 17978, ATCC 19606, MRSN 959), P. aeruginosa (ATCC 15692, ATCC 27853, MRSN 5519), E. cloacae (ATCC 13047, ATCC 35549), and E. coli (ATCC 35218, ATCC 43888). Bacteria were grown in cation-adjusted Mueller-Hinton broth (CAMHB) to achieve a final inoculum of 1 × 10⁵ CFU/mL. CAMHB is selected for its batch-to-batch reproducibility, low levels of antimicrobial inhibitors, and ability to support the growth of most bacterial pathogens.
(§2) Briefly, lyophilized peptides were dissolved in 0.2% TFA + 0.4% BSA in water to 2.56 mg/mL, ultrasonicated for 20 min, diluted 10-fold into CAMHB, and then serially diluted 2-fold in 0.02% TFA + 0.04% BSA in CAMHB and assayed at a concentration of 0.25 to 128 μg/mL. Assays were set up using the Tecan Freedom EVO liquid handling robot and software (Tecan, Switzerland) with 50 μL of bacterial inoculum and 50 μL of peptide transferred into round-bottom 96-well microtiter plates. Each plate assay was performed in duplicate and incubated at 37 °C for 20 h without agitation. Bacterial growth was assessed using the BIOMIC V3 Image Analysis system (Giles Scientific, USA) and the MIC values were determined visually according to the Clinical and Laboratory Standards Institute (CLSI) guidelines.

[4] = tested on: E. cloacae ATCC 13047; assay: microbe, parasite or virus in culture; conditions: ATCC 13047, 20 h
Method: as §1, §2

[5] = tested on: A. baumannii ATCC 19606; assay: microbe, parasite or virus in culture; conditions: ATCC 19606, 20 h
Method: as §1, §2

[6] = tested on: P. aeruginosa ATCC 27853; assay: microbe, parasite or virus in culture; conditions: ATCC 27853, 20 h
Method: as §1, §2

[7] = tested on: E. faecium ATCC 19434; assay: microbe, parasite or virus in culture; conditions: ATCC 19434, 20 h
Method: as §1, §2

[8] = tested on: S. aureus ATCC 43300; assay: microbe, parasite or virus in culture; conditions: S. aureus 43300; Week 1 (12/6/2023)
Method: as §1, §2

[9] = tested on: E. coli ATCC 35218; assay: microbe, parasite or virus in culture; conditions: E. coli 35218; Week 1 (12/6/2023)
Method: as §1, §2

[10] = tested on: E. cloacae ATCC 35549; assay: microbe, parasite or virus in culture; conditions: ATCC 35549, 20 h
Method: as §1, §2

[11] = tested on: K. pneumoniae ATCC 700603; assay: microbe, parasite or virus in culture; conditions: K. pneumoniae 700603; Week 1 (12/6/2023)
Method: as §1, §2

[12] = tested on: P. aeruginosa MRSN 5519; assay: microbe, parasite or virus in culture; conditions: MRSN 5519, 20 h
Method: as §1, §2

[13] = tested on: E. coli ATCC 43888; assay: microbe, parasite or virus in culture; conditions: ATCC 43888, 20 h
Method: as §1, §2

[14] = tested on: E. faecium ATCC 49224; assay: microbe, parasite or virus in culture; conditions: ATCC 49224, 20 h
Method: as §1, §2

[15] = tested on: A. baumannii ATCC 17978; assay: microbe, parasite or virus in culture; conditions: ATCC 17978, 20 h
Method: as §1, §2

[16] = tested on: S. aureus ATCC 25923; assay: microbe, parasite or virus in culture; conditions: ATCC 25923, 20 h
Method: as §1, §2

[17] = tested on: A. baumannii 5075; conditions: Week 1 (12/6/2023)
[18] = tested on: P. aeruginosa PA01 (Si); assay: microbe, parasite or virus in culture; type: cell-based; conditions: Si
Description: Supplement 41522_2025_837_MOESM13_ESM.xlsx, sheet "Table_S13_ESKAPEE-MIC" | column: Bacterial MIC (µg/mL)

CC[C@H](C)[C@H](NC(=O)[C@H](CO)NC(=O)[C@H](CO)NC(=O)[C@H](Cc1ccccc1)NC(=O)[C@H](CS)NC(=O)CNC(=O)[C@@H]1CCCN1C(=O)[C@H](CCCNC(=N)N)NC(=O)[C@H](CCCNC(=N)N)NC(=O)CNC(=O)[C@H](CS)NC(=O)[C@H](CCCNC(=N)N)NC(=O)[C@H](CCCNC(=N)N)NC(=O)[C@@H]1CCCN1C(=O)[C@H](C)NC(=O)CNC(=O)[C@H](CCCNC(=N)N)NC(=O)[C@@H](NC(=O)[C@H](CC(C)C)NC(=O)[C@H](CCCNC(=N)N)NC(=O)[C@@H](NC(=O)CNC(=O)[C@H](CCCNC(=N)N)NC(=O)[C@H](CCCCN)NC(=O)[C@@H](NC(=O)[C@H](Cc1c[nH]cn1)NC(=O)[C@@H](NC(=O)[C@@H](N)CCC(=O)O)[C@@H](C)CC)[C@@H](C)O)[C@@H](C)O)C(C)C)C(=O)NCC(=O)N[C@@H](CCCCN)C(=O)N[C@H](C(=O)N[C@@H](CCC(=O)O)C(=O)O)C(C)C [TrPr-Eb2] (H-EIHTKRGTRLVRGAPRRCGRRPGCFSSIGKVE-OH; N-terminus and C-terminus assumed)
>128.000 µg/mL: Bacterial MIC [1] | Bacterial MIC [3] | Bacterial MIC [4] | Bacterial MIC [5] | Bacterial MIC [6] | Bacterial MIC [7] | Bacterial MIC [8] | Bacterial MIC [9] | Bacterial MIC [10] | Bacterial MIC [11] | Bacterial MIC [12] | Bacterial MIC [13] | Bacterial MIC [14] | Bacterial MIC [15] | Bacterial MIC [16] | Bacterial MIC [17] | Bacterial MIC [18]
1.0mg peptide soluble in 1.0ml H2O: Suggest solvent (solubility) [2]

CC[C@H](C)[C@H](NC(=O)CNC(=O)CNC(=O)[C@@H](NC(=O)[C@H](CS)NC(=O)[C@H](CCCCN)NC(=O)[C@H](CCCCN)NC(=O)CNC(=O)[C@@H](NC(=O)[C@@H]1CCCN1C(=O)[C@@H](N)CCC(N)=O)[C@@H](C)CC)[C@@H](C)O)C(=O)N[C@@H](CC(N)=O)C(=O)N[C@@H](CS)C(=O)N[C@@H](CCCCN)C(=O)N[C@@H](CCCCN)C(=O)NCC(=O)N1CCC[C@H]1C(=O)N1CCC[C@H]1C(=O)N[C@@H](CCCNC(=N)N)C(=O)N[C@@H](CC(C)C)C(=O)N[C@@H](CCCCN)C(=O)N1CCC[C@H]1C(=O)NCC(=O)O [TrPr-Pc6] (H-QPIGKKCTGGINCKKGPPRLKPG-OH; N-terminus and C-terminus assumed)
1.0mg peptide soluble in 1.0ml H2O: Suggest solvent (solubility) [2]
>128.000 µg/mL: Bacterial MIC [1] | Bacterial MIC [3] | Bacterial MIC [4] | Bacterial MIC [5] | Bacterial MIC [6] | Bacterial MIC [7] | Bacterial MIC [8] | Bacterial MIC [9] | Bacterial MIC [10] | Bacterial MIC [11] | Bacterial MIC [12] | Bacterial MIC [13] | Bacterial MIC [14] | Bacterial MIC [15] | Bacterial MIC [16] | Bacterial MIC [17] | Bacterial MIC [18]

IRRPPGFSPFR [PrAd-Eb8]
>128.000 µg/mL: Bacterial MIC [1] | Bacterial MIC [3] | Bacterial MIC [4] | Bacterial MIC [5] | Bacterial MIC [6] | Bacterial MIC [7] | Bacterial MIC [8] | Bacterial MIC [9] | Bacterial MIC [10] | Bacterial MIC [11] | Bacterial MIC [12] | Bacterial MIC [13] | Bacterial MIC [14] | Bacterial MIC [15] | Bacterial MIC [16] | Bacterial MIC [17] | Bacterial MIC [18]
1.0mg peptide soluble in 1.0ml H2O: Suggest solvent (solubility) [2]

LHTKRVQNKKKNGNRRQTIGKKCTAGFICKKEYLKLNPGIYSVIHD (cysteines drawn unpaired) [Tr-Eb1]
1.0mg peptide soluble in 1.0ml DMSO: Suggest solvent (solubility) [2]
>128.000 µg/mL: Bacterial MIC [1] | Bacterial MIC [3] | Bacterial MIC [4] | Bacterial MIC [5] | Bacterial MIC [6] | Bacterial MIC [7] | Bacterial MIC [8] | Bacterial MIC [9] | Bacterial MIC [10] | Bacterial MIC [11] | Bacterial MIC [12] | Bacterial MIC [13] | Bacterial MIC [14] | Bacterial MIC [15] | Bacterial MIC [16] | Bacterial MIC [17] | Bacterial MIC [18]
